Laboratory results taken from patent US6319501A, “Method of immunizing against hepatitis B virus” (Health Research, Inc., priority 1993, dated 2001).
Like-named read-outs stand apart in the source and are kept apart here. Ends that are not written are not given here.

Experiments:
[1] = test system: Human peripheral blood mononuclear cells (PBMC); assay: In vitro proliferation (3H-TdR incorporation) of human PBMC / T cells from rHBsAg vaccinees (FIG. 5); format: cell-based; conditions: humans immunized with recombinant HBsAg vaccine
Description: Human peripheral blood mononuclear cells (PBMC) were obtained from volunteers who had received the full course of the rHBsAg vaccine (Merck Sharp & Dohme). Donor 1 .box-solid. Donor 2 z1 Donor 3 .quadrature. Donor 4 z2 For comparison average T cell-stimulatory response to rHBsAg subtype ad (146,478), parent peptide (96,930=100%) and media control (1,147) was examined at optimal concentrations for each antigen. Values expressed in parentheses are mean cpms of ^3 H-TdR incorporation of triplicate wells. Amino acid residues replacing amino acids in the parent sequence are shown at the bottom of the bars.
Sixty ml of blood was collected (in heparin containing syringes) from the antecubital vein of individuals who were vaccinated with a recombinant hepatitis B vaccine (RecombiVax HB; Merck, Sharp and Dohme). […]
Peripheral blood mononuclear cells were cultured in 96 well flat bottom plates at a density of 2.5×10^5 cells/100 μl per well in RPMI-1640 medium supplemented with 2mM glutamine, 100 units/ml penicillin, 100 μg/ml streptomycin, 50 μg/ml gentamycin and 10% human AB-positive serum. […] Proliferation, as measured by thymidine incorporation, was determined by liquid scintillation spectroscopy. Results are expressed as mean counts per minute (cpm) for triplicate cultures.

[2] = test system: antibodies recognizing the (139-147) segment of the S-protein (reaction with HBsAg); assay: Inhibition of attachment of antibodies recognizing S(139-147) to HBsAg-coated wells (comparative antigenicity of replacement set peptides); format: binding, rabbit
Experimental: FIG. 1. concerns the relative inhibitory activity of replacement set peptides on the reaction of antibodies recognizing the (139-147) segment of the S-protein with HBsAg. The concentration of each peptide at which the attachment of antibodies to solid phase HBsAg was reduced by 50% (C50) was determined. C50 of the parent peptide (sequence shown on top of the bars) was divided by C50 for each inhibitory peptide and the log10 of the ratio was plotted on the ordinate. Amino acid residues replacing amino acids in the parent sequence are shown on the top of each bar. The sequence numbers of residues being replaced in the parent sequence are shown on the bottom of the bar groups.
Wells of 96-well polystryene plates (Removawell, Immunolon II, Dynatech Laboratories, Chantilly, Va.) were coated with HBsAg subtype adw (200 μl; 100 μg/ml in 0.01 M Tris HCl pH 8.8) overnight at 20° C. The wells were then coated with a mixture of bovine serum albumin (BSA) and gelatin (10 and 2.5 mg/ml, respectively) in 0.14 M NaCl, 0.01 M Tris, 0.02% NaN3 (TS). […] The diluted antiserum, without added peptides, and normal rabbit serum served as positive and negative controls, respectively. Aliquots of the diluted rabbit sera with or without the peptides (200 μl) were added to the HBsAg-coated wells. After overnight incubation at 25° C., the plates were washed with 200 μl of TS and ^125 I-labeled anti-rabbit IgG (Kirkegaard & Perry Laboratories, Inc., Gaithersburg, Md.; 200,000 cpm diluted 1:1 with TSBG) were added to the wells. After incubation for 2 hours at 37° C., the wells were washed with TS and counted for radioactivity. Radioactivity, corrected for counts corresponding to diluted normal rabbit serum, was plotted against the log10 of the concentration of the respective peptides. […]

[3] = test system: Murine T cells primed to rHBsAg, subtype ad; assay: In vitro proliferation (3H-TdR incorporation) of T cells from Balb/c mice primed with rHBsAg subtype ad (FIG. 4); format: cell-based, mouse (Balb/c); conditions: mice primed with HBsAg ad
Description: FIG. 4. depicts relative T cell-stimulatory activity of replacement set peptides expressed as a percentage of stimulation elicited by the parent peptide. Murine T cells were obtained by nylon wool column purification of Balb/c lymph node cells primed to rHBsAg, subtype ad (RecombiVax HB, Merck Sharp & Dohme). For comparison the T cells-stimulatory response to rHBsAg, subtype ad (97,024), rHBsAg subtype ayr (64,878), parent peptide (44,916=100%) and media control (1,873) was examined at optimal concentrations for each antigen. Values shown in parentheses are mean cpms corresponding to ^3 H-TdR incorporation measured in triplicate. Amino acid residues replacing amino acids in the parent sequence are shown at the bottom of the bars.
(§1) Balb/c mice were immunized in the hind foot pads, either with 0.5 μg of RecombiVax HB or with HBsAg subtype ayw (Scripps Laboratories), on day 0, 14 and 21. One week after the last injection, the animals were sacrificed and the popliteal lymph nodes were collected. The nodes were teased apart and the dispersed cells were then washed twice in RPMI-1640 medium without any serum supplement and once in RPMI medium containing 10% bovine calf serum. A cell count was made and the cell concentration was adjusted so that T cell enrichment was then done at 1×10^8 cells/0.6g of packed nylon wool column. […]

[4] = test system: Murine T cells primed with HBsAg, subtype ayr; assay: In vitro proliferation (3H-TdR incorporation) of T cells from Balb/c mice primed with HBsAg subtype ayr (FIG. 3); format: cell-based, mouse (Balb/c)
Description: FIG. 3. depicts relative T cell-stimulatory activity of replacement set peptides expressed as a percentage of stimulation elicited by the parent peptide. Murine T cells were obtained by nylon wool column purification of Balb/c lymph node cells primed with HBsAg, subtype ayr (Scripps Laboratories, San Diego, Calif.). For comparison, the T cell-stimulatory response to rHBsAg, subtype ad(32,657), HBsAg subtype ayr (54,640), parent peptide (16,073=100%) and media control (330) were examined at optimal concentrations for each antigen. Values shown in parentheses are mean cpms corresponding to ^3 H-TdR incorporation measured in triplicate. Amino acid residues replacing amino acids in the parent sequence are shown at the bottom of the bars.
as §1

anti-HBs = conditions: cited from earlier work
native HBsAg = conditions: after polymerization with glutaraldehyde; cited from earlier work
[5] = test system: T-helper (Th) lymphocytes; conditions: humans immunized with HBsAg; linear and cyclic forms; cited from earlier work
[6] = test system: T-helper (Th) lymphocytes; conditions: mice immunized with HBsAg; linear and cyclic forms; cited from earlier work

CTKPSDGNC
T-cell proliferative response / tolerance of replacement (in words) [1]: responded virtually equally
IC50 ([2]; HBsAg-coated wells, rabbit antiserum to S(135-155) diluted 150-fold, read-out: concentration of peptide at which a 50% inhibition of anti-HBs attachment occurred (C50)): 0.056 µM
inhibition of attachment of anti-HBs to HBsAg-coated wells, preliminary results (in words) [2]: inhibited the attachment of anti-HBs to HBsAg-coated wells
T-cell proliferative response / tolerance of replacement (in words) [3]: most tolerated
T-cell proliferative response / tolerance of replacement (in words) [4]: much more effective in eliciting proliferation of T-cells from mice immunized with HBsAg ayr in comparison with the ad-specific peptide

CTKPTDGNC [S(139-147) peptide with threonine at position 143, corresponding to S-protein subtype ad]
inhibition of attachment of anti-HBs to HBsAg-coated wells, preliminary results (in words) [2]: inhibited the attachment of anti-HBs to HBsAg-coated wells
T-cell proliferative response / tolerance of replacement (in words) [3]: much more effective in eliciting proliferation of T-cells from mice immunized with HBsAg ad in comparison with the ay specific peptide
T-cell proliferative response / tolerance of replacement (in words) [4]: most favored replacement

cyclic peptide corresponding to the sequence S(139-147): cyclic peptide S(139-147) from the S-protein subtype adw with a disulfide bond between residues (139-147)
binding / affinity to anti-HBs (in words) (anti-HBs): affinity similar to that determined for the reaction between native HBsAg and anti-HBs
antibodies elicited (in words) (native HBsAg): elicited antibodies reactive with native HBsAg

peptide S(139-147): peptide S(139-147) in both linear and cyclic forms (LYLPAGGSS; also: linear and cyclic forms; UniProt P03141 139-147, looked up, fragment)
proliferation of T-helper lymphocytes (in words) [5]: elicited the proliferation of T-helper (Th) lymphocytes
proliferation of T-helper lymphocytes (in words) [6]: elicited the proliferation of T-helper (Th) lymphocytes
